Activity calls are given as the source filed them. The calls are words filed in the database; no cut-off is given here. Bounds are passed on as bounds.

The IC50 is the concentration needed to halve the response being measured. As a reminder, the chromatographic logD is a lipophilicity value derived from retention on a column.

A short description of data set [1]: Maximum oral bioavailability in human liver microsomes based well stirred liver model at 1 uM measured after 2 to 60 mins in presence of glucose-6-phosphate by LC-MS/MS analysis. It counts as ADME, Microsome. To be noted: read-out: Fmax. (In general: Liver microsomes are vesicles of endoplasmic reticulum, rich in cytochrome P450 enzymes.)
Data set [2] in a line: Clearance in human liver microsomes at 1 uM measured after 2 to 60 mins in presence of glucose-6-phosphate by LC-MS/MS analysis. It counts as ADME, Microsome.
Data set [3] addresses T1, Lutropin-choriogonadotropic hormone receptor (Homo sapiens, UniProt P22888). Description: Antagonist activity at human luteinizing hormone receptor assessed as reduction in agonist-induced cAMP production preincubated for 20 mins followed by agonist solution addition after 60 mins by cell based TR-FRET assay. Type of data set: functional. In general terms: cAMP levels reflect the balance of adenylyl cyclase and phosphodiesterase activity.

A short description of data set [4]: Lipophilicity, logD of the compound at pH 7.5 by reversed-phase HPLC. Conditions: buffer. Type of data set: physicochemical.
The target in data set [5] is Thyrotropin receptor (Homo sapiens, UniProt P16473). Description: Antagonist activity at human thyroid stimulating hormone receptor expressed in rat HTC133 cells assessed as reduction in agonist-induced cAMP production preincubated for 20 mins followed by agonist solution addition and measured after 60 mins by cell based TR-FRET assay. It counts as functional.
Chain of Thyrotropin receptor (P16473 whole entry): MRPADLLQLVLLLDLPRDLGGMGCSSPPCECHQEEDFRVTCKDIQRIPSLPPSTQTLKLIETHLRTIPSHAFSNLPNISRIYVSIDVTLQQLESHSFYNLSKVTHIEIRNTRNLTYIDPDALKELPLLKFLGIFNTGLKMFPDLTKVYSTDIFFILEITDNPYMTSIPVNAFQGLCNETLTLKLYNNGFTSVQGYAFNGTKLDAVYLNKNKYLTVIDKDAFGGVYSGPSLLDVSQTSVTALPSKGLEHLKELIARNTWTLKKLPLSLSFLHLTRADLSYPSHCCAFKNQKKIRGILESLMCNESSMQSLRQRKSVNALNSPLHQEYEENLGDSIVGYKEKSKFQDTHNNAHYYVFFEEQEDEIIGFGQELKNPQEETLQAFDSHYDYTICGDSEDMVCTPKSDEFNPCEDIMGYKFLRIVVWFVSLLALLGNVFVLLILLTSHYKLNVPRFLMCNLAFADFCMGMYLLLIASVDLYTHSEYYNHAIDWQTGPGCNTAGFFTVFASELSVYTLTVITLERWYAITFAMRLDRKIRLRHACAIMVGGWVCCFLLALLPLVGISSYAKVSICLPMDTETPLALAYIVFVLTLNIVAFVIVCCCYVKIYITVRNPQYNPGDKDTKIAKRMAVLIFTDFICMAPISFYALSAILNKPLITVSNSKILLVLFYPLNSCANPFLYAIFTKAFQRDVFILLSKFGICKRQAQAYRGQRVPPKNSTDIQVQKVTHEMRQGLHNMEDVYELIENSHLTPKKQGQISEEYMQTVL
The target of data set [6] is T2, Follicle-stimulating hormone receptor (Homo sapiens, UniProt P23945).
T2 sequence (P23945 whole entry): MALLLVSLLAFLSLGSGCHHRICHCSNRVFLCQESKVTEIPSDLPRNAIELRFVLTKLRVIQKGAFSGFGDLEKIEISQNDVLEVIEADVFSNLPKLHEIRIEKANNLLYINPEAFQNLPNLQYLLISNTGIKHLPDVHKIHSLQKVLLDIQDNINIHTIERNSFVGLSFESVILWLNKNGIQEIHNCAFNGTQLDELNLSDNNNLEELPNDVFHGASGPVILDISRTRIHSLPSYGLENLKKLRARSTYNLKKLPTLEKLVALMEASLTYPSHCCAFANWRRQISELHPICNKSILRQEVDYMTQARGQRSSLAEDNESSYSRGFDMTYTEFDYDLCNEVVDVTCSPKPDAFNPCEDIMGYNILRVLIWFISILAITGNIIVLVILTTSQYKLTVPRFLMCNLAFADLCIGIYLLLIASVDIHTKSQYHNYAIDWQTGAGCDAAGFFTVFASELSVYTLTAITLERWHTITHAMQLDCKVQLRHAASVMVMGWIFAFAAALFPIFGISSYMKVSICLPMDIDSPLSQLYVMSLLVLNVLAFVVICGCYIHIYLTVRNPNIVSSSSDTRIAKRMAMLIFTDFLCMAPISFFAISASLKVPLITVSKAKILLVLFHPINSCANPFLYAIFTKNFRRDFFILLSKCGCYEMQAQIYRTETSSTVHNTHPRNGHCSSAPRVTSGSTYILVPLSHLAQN
Description: Antagonist activity at human follicle stimulating hormone receptor assessed as reduction in agonist-induced cAMP production preincubated for 20 mins followed by agonist solution addition and measured after 120 mins by cell based TR-FRET assay. It counts as functional.

Data set [7] addresses Lutropin-choriogonadotropic hormone receptor (Rattus norvegicus, UniProt P16235). Description: Antagonist activity at rat luteinizing hormone receptor expressed in rat ovary granulosa GLHR15 cell suspension assessed as reduction in agonist-induced cAMP production preincubated for 30 mins followed by agonist solution addition after 30 mins by cell based TR-FRET assay. Type of data set: functional.

Data set [8] addresses Lutropin-choriogonadotropic hormone receptor (Mus musculus, UniProt P30730). Description: Antagonist activity at luteinizing hormone receptor in mouse MLTC-1 cells assessed as reduction in agonist-induced cAMP production preincubated for 30 mins followed by agonist solution addition and measured after 30 mins by cell based TR-FRET assay. It counts as functional.
Data set [9] addresses Relaxin receptor 1 (Homo sapiens) (UniProt Q9HBX9). Description: Antagonist activity at human RXFP1 assessed as reduction in agonist-induced cAMP production preincubated for 20 mins followed by mutRelaxin agonist addition measured after 60 mins by cell based TR-FRET assay. It counts as functional.
Data set [10] addresses T1, Lutropin-choriogonadotropic hormone receptor. Description: Agonist activity at human luteinizing hormone receptor incubated for 60 mins by cell based TR-FRET assay. Conditions: human, 1 h. For orientation: Time-resolved FRET reads energy transfer from a long-lived donor to a nearby acceptor.

T1 sequence (P22888 whole entry): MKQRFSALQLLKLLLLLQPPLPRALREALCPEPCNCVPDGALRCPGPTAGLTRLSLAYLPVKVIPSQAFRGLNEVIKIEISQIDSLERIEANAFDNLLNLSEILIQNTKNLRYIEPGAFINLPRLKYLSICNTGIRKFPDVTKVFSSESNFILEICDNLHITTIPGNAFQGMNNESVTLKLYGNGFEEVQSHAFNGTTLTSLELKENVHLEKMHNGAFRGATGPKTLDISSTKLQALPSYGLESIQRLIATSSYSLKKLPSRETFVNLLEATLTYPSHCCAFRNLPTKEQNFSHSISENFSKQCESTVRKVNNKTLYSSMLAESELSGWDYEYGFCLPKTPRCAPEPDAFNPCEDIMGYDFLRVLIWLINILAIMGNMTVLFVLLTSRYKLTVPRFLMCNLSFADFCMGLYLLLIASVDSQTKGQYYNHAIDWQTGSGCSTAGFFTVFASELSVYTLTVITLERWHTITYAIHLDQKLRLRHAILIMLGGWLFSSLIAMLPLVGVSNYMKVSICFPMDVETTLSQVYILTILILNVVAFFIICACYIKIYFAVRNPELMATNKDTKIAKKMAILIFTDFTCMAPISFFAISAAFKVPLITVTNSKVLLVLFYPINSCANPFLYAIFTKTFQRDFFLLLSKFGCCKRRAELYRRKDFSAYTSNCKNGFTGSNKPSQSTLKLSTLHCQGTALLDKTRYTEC
Chain of Lutropin-choriogonadotropic hormone receptor (Rattus norvegicus, UniProt P16235) (P16235 whole entry): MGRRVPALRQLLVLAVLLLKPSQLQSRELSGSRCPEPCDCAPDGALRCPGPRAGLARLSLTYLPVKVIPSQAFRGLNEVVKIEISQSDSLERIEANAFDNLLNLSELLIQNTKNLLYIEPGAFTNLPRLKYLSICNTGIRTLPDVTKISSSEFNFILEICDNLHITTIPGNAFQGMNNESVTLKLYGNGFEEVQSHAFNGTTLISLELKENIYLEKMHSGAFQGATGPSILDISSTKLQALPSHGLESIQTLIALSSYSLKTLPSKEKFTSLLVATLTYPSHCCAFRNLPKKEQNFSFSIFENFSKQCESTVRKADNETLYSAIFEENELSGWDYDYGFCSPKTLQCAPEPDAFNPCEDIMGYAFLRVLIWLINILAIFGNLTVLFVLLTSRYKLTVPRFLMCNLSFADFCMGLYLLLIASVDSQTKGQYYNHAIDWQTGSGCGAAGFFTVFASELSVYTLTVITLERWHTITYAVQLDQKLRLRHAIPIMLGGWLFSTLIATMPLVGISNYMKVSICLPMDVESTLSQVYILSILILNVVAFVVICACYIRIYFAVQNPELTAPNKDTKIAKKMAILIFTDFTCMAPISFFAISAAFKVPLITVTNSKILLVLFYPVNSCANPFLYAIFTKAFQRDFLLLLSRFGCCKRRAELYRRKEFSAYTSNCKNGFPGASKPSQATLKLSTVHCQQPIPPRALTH
Chain of Lutropin-choriogonadotropic hormone receptor (Mus musculus, UniProt P30730) (P30730 whole entry): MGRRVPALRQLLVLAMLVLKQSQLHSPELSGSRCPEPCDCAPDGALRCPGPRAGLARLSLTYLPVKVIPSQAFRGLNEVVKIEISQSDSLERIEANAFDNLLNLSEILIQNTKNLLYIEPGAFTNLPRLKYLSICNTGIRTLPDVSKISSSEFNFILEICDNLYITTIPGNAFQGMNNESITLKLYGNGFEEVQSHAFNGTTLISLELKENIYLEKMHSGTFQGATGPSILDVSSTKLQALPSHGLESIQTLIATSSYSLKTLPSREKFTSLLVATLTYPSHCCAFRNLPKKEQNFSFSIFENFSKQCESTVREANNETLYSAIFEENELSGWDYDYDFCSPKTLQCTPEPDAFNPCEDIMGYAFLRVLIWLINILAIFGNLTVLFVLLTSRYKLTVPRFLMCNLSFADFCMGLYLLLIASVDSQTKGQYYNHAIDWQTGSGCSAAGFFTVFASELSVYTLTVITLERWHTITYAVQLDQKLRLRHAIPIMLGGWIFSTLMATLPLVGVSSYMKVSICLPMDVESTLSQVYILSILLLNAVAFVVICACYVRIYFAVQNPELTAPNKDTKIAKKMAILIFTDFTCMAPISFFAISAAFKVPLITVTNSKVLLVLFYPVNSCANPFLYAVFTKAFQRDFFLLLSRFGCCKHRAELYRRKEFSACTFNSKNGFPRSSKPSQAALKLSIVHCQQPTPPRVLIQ
Chain of Relaxin receptor 1 (Homo sapiens) (Q9HBX9 whole entry): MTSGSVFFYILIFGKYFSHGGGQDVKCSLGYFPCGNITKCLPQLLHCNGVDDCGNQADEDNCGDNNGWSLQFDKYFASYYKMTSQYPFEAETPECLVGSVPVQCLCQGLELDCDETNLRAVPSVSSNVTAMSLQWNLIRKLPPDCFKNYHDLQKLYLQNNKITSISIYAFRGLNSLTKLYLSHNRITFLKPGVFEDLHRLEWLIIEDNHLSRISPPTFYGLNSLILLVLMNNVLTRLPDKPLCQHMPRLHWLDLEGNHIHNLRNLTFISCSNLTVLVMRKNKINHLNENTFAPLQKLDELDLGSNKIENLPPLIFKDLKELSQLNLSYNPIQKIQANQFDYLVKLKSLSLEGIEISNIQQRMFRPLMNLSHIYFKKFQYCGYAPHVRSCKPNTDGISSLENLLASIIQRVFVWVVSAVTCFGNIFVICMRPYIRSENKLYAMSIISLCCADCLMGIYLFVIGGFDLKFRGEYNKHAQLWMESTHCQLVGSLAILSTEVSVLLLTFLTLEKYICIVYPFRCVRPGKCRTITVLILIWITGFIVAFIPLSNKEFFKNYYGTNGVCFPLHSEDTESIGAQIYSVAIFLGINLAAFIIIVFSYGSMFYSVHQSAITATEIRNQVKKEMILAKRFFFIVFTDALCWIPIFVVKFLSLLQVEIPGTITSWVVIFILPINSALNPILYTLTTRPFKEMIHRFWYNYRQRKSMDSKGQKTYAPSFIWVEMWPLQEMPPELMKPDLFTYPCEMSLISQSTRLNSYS

Consider `COc1ccc(C2c3ccsc3CCN2C(=O)Nc2ccc(Cl)cc2)cc1` (racemic), for which the Fh at 1 µM in data set [1] was 18%. The CLhep predicted at 1 µM in [2] was 18.3 mL/min/kg. The IC50 in [3] is 107 nM. The chromatographic logD in data set [4] turned out to be 3.9.
For `O=C(Nc1ccc(Oc2ccc(F)cc2)nc1)N1CCc2ncccc2[C@@H]1c1ccc(F)cc1`, the Fh at 1 µM in data set [1] was found to be 83%. The CLhep predicted at 1 µM in data set [2] was 3.33 mL/min/kg. Besides, in data set [3], the IC50 worked out at 312 nM. Besides, the chromatographic logD in [4] was found to be 3.2.
With `Cc1ccc(C2c3ccsc3CCN2C(=O)Nc2cc(Cl)cc(Cl)c2)cc1` (racemic), in data set [1], the Fh at 1 µM was found to be 8%. The CLhep predicted at 1 µM in [2] is 20 mL/min/kg. The IC50 in data set [3] worked out at 2610 nM. Also, the chromatographic logD in data set [4] came to 5.5.
On the same counts, the results for `O=C(Nc1ccc(Oc2ccc(F)cc2)cc1)N1CCc2ncccc2[C@@H]1c1ccc(F)cc1` are 75%, 5 mL/min/kg, 102 nM and 3.9.
Regarding `COc1ccc(C2c3ccsc3CCN2C(=O)Nc2cc(OC)cc(OC)c2)cc1` (racemic), in [1], the Fh at 1 µM turned out to be 3%. In addition, the CLhep predicted at 1 µM in data set [2] was 21.7 mL/min/kg. Moreover, the IC50 in data set [3] came out at 207 nM. In addition, the chromatographic logD in data set [4] is 3.6.
In the case of `O=C(Nc1cc(Cl)cc(Cl)c1)N1CCc2sccc2C1c1ccc(F)c(F)c1` (racemic), the Fh at 1 µM in data set [1] stood at 40%. Further, in [2], the CLhep predicted at 1 µM was 13.3 mL/min/kg. The IC50 in [3] amounted to 1850 nM.
With `COc1ccc(C2c3ccsc3CCN2C(=O)Nc2cc(C)cc(C)c2)cc1` (racemic), the IC50 in [3] was 580 nM. Besides, in [4], the chromatographic logD was 4.1.
As to `COc1ccc([C@H]2c3ccsc3CCN2C(=O)Nc2cc(Cl)cc(Cl)c2)cc1`, the IC50 in data set [5] is more than 30000 nM; in data set [6], more than 16500 nM; in data set [7], 412 nM; in [8], more than 30000 nM; in [3], 403 nM.
On to `O=C(Nc1ccc(Oc2ccc(F)cc2)cc1)N1CCc2sccc2C1c1ccc(Cl)cc1` (racemic), for which, in [1], the Fh at 1 µM was found to be 56%. In data set [2], the CLhep predicted at 1 µM is 10 mL/min/kg. Moreover, the IC50 in [3] came to 127 nM. In addition, the chromatographic logD in [4] stood at 5.3.
In the case of `COc1ccc([C@@H]2c3ccsc3CCN2C(=O)Nc2cc(Cl)cc(Cl)c2)cc1`, the IC50 was more than 30000 nM in data set [5]; more than 16500 nM in [6]; 4890 nM in data set [7]; more than 30000 nM in [8]; 6790 nM in [3].
For the compound `O=C(Nc1cc(Cl)cc(Cl)c1)N1CCc2sccc2C1c1cccc(F)c1` (racemic), in data set [3], the IC50 worked out at 3130 nM. In [4], this compound returned a chromatographic logD of 5.1.
As for `O=C(Nc1cc(Cl)cc(Cl)c1)N1CCc2sccc2C1c1ccccn1` (racemic), the IC50 in data set [3] was more than 16500 nM.
On to `COc1ccc(C2c3ccsc3CCN2C(=S)Nc2cc(OC)cc(OC)c2)cc1` (racemic), for which, in data set [3], the IC50 amounted to 3320 nM. Also, in [4], the chromatographic logD is 3.7.
`O=C(Nc1ccccc1)N1CCc2sccc2C1c1ccc(Cl)cc1` (racemic): the Fh at 1 µM in data set [1] worked out at 26%. The CLhep predicted at 1 µM in data set [2] was 16.7 mL/min/kg. The IC50 in data set [3] is 95 nM. In data set [4], the chromatographic logD stood at 4.
`NC(=O)c1ccc(C2c3ccsc3CCN2C(=O)Nc2cc(Cl)cc(Cl)c2)cc1` (racemic): in data set [3], the IC50 is more than 16500 nM. In [4], this compound came in with a chromatographic logD of 3.7.
Regarding `O=C(Nc1cc(Cl)cc(Cl)c1)N1CCc2sccc2C1c1ccccc1F` (racemic), the Fh at 1 µM in data set [1] is 17%. Moreover, in data set [2], the CLhep predicted at 1 µM is 18.3 mL/min/kg. In data set [3], the IC50 was found to be 3240 nM. The chromatographic logD in data set [4] was determined as 4.8.
For `O=C(Nc1cc(Cl)cc(Cl)c1)N1CCc2sccc2C1c1cccnc1` (racemic), in data set [1], the Fh at 1 µM was 11%. Moreover, the CLhep predicted at 1 µM in data set [2] is 20 mL/min/kg. Also, the IC50 in data set [3] was determined as 7470 nM. The compound further had a chromatographic logD in data set [4] of 4.2.
Consider `O=C(Nc1cc(Cl)cc(Cl)c1)N1CCc2sccc2C1c1ccc(C(F)(F)F)cc1` (racemic), for which, in data set [1], the Fh at 1 µM was found to be 51%. For the same compound, the CLhep predicted at 1 µM in data set [2] is 11.7 mL/min/kg. In [3], the IC50 was 3650 nM.
For `COc1ccc(C2c3ccsc3CCN2C(=O)Nc2cccc(Cl)c2)cc1` (racemic), the Fh at 1 µM in data set [1] worked out at 7%. Also, the CLhep predicted at 1 µM in [2] was 20 mL/min/kg. In addition, the IC50 in data set [3] is 275 nM. In [4], the chromatographic logD came out at 4.2.
For the compound `O=C(Nc1cc(Cl)cc(Cl)c1)N1CCc2sccc2C1c1ccc(Cl)cc1` (racemic), in data set [1], the Fh at 1 µM is 48%. The CLhep predicted at 1 µM in [2] is 11.7 mL/min/kg. Also, in data set [3], the IC50 stood at 486 nM.
Take `O=C(Nc1ccc(F)c(OC(F)(F)F)c1)N1CCc2sccc2C1c1ccc(Cl)cc1` (racemic): the Fh at 1 µM in data set [1] is 42%. Further, the CLhep predicted at 1 µM in data set [2] is 13.3 mL/min/kg. Besides, the IC50 in data set [3] worked out at 81 nM. In data set [4], the chromatographic logD is 5.2.
As to `COc1cc(NC(=O)N2CCc3sccc3[C@@H]2c2ccccc2)cc(OC)c1`, the IC50 in data set [3] worked out at 193 nM.
For the compound `COc1ccc(C2c3ccsc3CCN2C(=O)Cc2cc(C)cc(C)c2)cc1` (racemic), in data set [3], the IC50 is more than 16000 nM. Further, in [4], the chromatographic logD was determined as 4.8.
As to `CC(C)c1ccc(C2c3ccsc3CCN2C(=O)Nc2cc(Cl)cc(Cl)c2)cc1` (racemic), in [3], the IC50 is more than 16500 nM.
As for `COc1ccc(C2c3ccsc3CCN2C(=O)Nc2ccc(F)c(C(N)=O)c2)cc1` (racemic), in data set [3], the IC50 was found to be 1680 nM. This compound also showed a chromatographic logD in data set [4] of 2.8.
With `O=C(Nc1cccc(Oc2ccccc2)c1)N1CCc2sccc2C1c1ccc(Cl)cc1` (racemic), in data set [3], the concentration for half-maximal inhibition (IC50) is 332 nM. In data set [4], this compound showed a chromatographic logD of 5.4.
As to `COc1ccc(C2c3ccsc3CCN2C(=O)Nc2cc(Cl)cc(Cl)c2)cc1` (racemic), the inhibition entry in data set [9] is “inactive”. In addition, the IC50 in data set [5] was more than 30000 nM; in [6], more than 16500 nM; in data set [7], 212 nM; in data set [8], more than 30000 nM; in [3], 378 nM. Also, in [1], the Fh at 1 µM is 3%. Besides, the CLhep predicted at 1 µM in data set [2] was 21.7 mL/min/kg. The Activity entry in [10] was “Not Active”. In [4], this compound returned a chromatographic logD of 5.
Consider `O=C(Nc1ccc(F)c(Cl)c1)N1CCc2sccc2C1c1ccc(Cl)cc1` (racemic), for which the IC50 in data set [3] amounted to 174 nM. For the same compound, in data set [4], the chromatographic logD turned out to be 5.1.
Regarding `O=C(Nc1cc(Cl)cc(Cl)c1)N1CCc2sccc2C1c1ccccc1` (racemic), the concentration for half-maximal inhibition (IC50) in [3] stood at 1620 nM.
On the same count and under the same terms, then `Cc1ccccc1C1c2ccsc2CCN1C(=O)Nc1cc(Cl)cc(Cl)c1` (racemic), with more than 16500 nM.
As to `O=C(Nc1cc(Cl)cc(Cl)c1)N1CCc2sccc2C1c1ccc(=O)[nH]c1` (racemic), the IC50 in data set [3] was determined as 2310 nM. The same compound registered a chromatographic logD in [4] of 3.7.
Regarding `COc1ccc(C2c3ccsc3CCN2C(=O)Nc2ccc(F)c(N3CCS(=O)(=O)CC3)c2)cc1` (racemic), the IC50 in data set [3] was more than 16500 nM. Further, the chromatographic logD in data set [4] was 3.1.
With `O=C(Nc1cc(Cl)cc(Cl)c1)N1CCc2sccc2C1c1ccncc1` (racemic), the IC50 in data set [3] came to 5180 nM. Moreover, the chromatographic logD in [4] came out at 4.2.

The record behind these values is ChEMBL document CHEMBL4321836, “Discovery of BAY-298 and BAY-899: Tetrahydro-1,6-naphthyridine-Based, Potent, and Selective Antagonists of the Luteinizing Hormone Receptor Which Reduce Sex Hormone Levels in Vivo” (J Med Chem, 2019).
